# Calls of active or inactive are those of the source. The rule behind the calls is not given here.
# Columns and labels:
# Mus musculus [1] = assay: Upregulation of acetylated H4K5 protein expression in right side cortex of bilateral common carotid artery occlusion-induced vascular dementia C57BL/6J mouse model at 25 mg/kg, ip measured after 3 months by Western blot analysis; type: functional, organism-based
# [2] = molecular target: Histone deacetylase 3/Nuclear receptor corepressor 2 (HDAC3/NCoR2) (Homo sapiens, UniProt O15379); assay: biochemical; type: cell-based
# [3] = Cmax in Sprague-Dawley rat at 10 mg/kg, po measured up to 24 hrs; type: ADME, organism-based; design: dose 10 mg/kg, route oral; conditions: in vivo
# Histone deacetylase 5 = Histone deacetylase 5 (Homo sapiens, UniProt Q9UQL6); assay: Inhibition of recombinant human C-terminal His-tagged HDAC5 (657 to 1123 residues) expressed in baculovirus infected insect cells using Boc-K(Ac)-AMC as substrate after 60 mins by fluorimetry analysis
# [4] = Microsomal stability in human liver microsomes assessed as parent compound remaining measured after 30 mins; type: ADME, Microsome; conditions: read-out: Stability
# Histone deacetylase 2 = Histone deacetylase 2 (Homo sapiens, UniProt Q92769); assay: Inhibition of recombinant human C-terminal GST-tagged HDAC2 (1 to 488 residues) expressed in baculovirus infected sf21 cells using RHK-K(Ac)-AMC as substrate after 60 mins by fluorimetry assay; conditions: read-out: IC50
# [5] = AUC (0 to infinity) in Sprague-Dawley rat at 2 mg/kg, iv measured up to 24 hrs; type: ADME, organism-based; design: dose 2 mg/kg, time infinity, route intravenous; conditions: in vivo
# Histone deacetylase 4 = Histone deacetylase 4 (Homo sapiens, UniProt P56524); assay: Inhibition of recombinant N-terminal GST-tagged/C-terminal His-tagged human HDAC4 (627 to 1084 residues) expressed in baculovirus infected insect cells using RHK-K(Ac)-AMC as substrate after 60 mins by fluorimetry analysis
# Mus musculus [6] = assay: Upregulation of acetylated H3K14 protein expression in right side cortex of bilateral common carotid artery occlusion-induced vascular dementia C57BL/6J mouse model at 25 mg/kg, ip measured after 3 months by Western blot analysis; type: functional, organism-based
# [7] = Half life in Sprague-Dawley rat at 10 mg/kg, po measured up to 24 hrs; type: ADME, organism-based; conditions: in vivo
# [8] = Tmax in Sprague-Dawley rat at 10 mg/kg, po measured up to 24 hrs; type: ADME, organism-based; conditions: in vivo
# Mus musculus [9] = assay: Upregulation of acetylated H4K5 protein expression in left side cortex of bilateral common carotid artery occlusion-induced vascular dementia C57BL/6J mouse model at 25 mg/kg, ip measured after 3 months by Western blot analysis; type: functional, organism-based
# Mus musculus [10] = assay: (§1) Anti-vascular cognitive impairment activity against bilateral common carotid artery occlusion-induced vascular dementia C57BL/6J mouse model assessed as ratio of cerebral blood flow in left parietal area at 25 mg/kg, ip administered post surgery measured after 3 months(reference value: 0.792 +/- 0.029); type: functional
# Mus musculus [11] = assay: as §1, with “right” for “left”, “months (reference” for “months(reference”, “0.761” for “0.792”, “0.037)” for “0.029)”; type: functional
# [12] = Microsomal stability in rat liver microsomes assessed as parent compound remaining measured after 30 mins; type: ADME, Microsome; conditions: read-out: Stability
# Mus musculus [13] = assay: Upregulation of acetylated H3K14 protein expression in hippocampus of bilateral common carotid artery occlusion-induced vascular dementia C57BL/6J mouse model at 25 mg/kg, ip measured after 3 months by Western blot analysis; type: functional, organism-based
# Mus musculus [14] = assay: Anti-vascular cognitive impairment activity against bilateral common carotid artery occlusion-induced vascular dementia C57BL/6J mouse model assessed as reduction in cerebral blood flow at 25 mg/kg, ip administered post surgery measured after 3 months relative to sham-operated control; type: functional; design: scale not given: the % may be the effect or the level left
# [15] = Aqueous solubility of compound in ethanol incubated at 37 degree C by LC-MS analysis; type: physicochemical
# Histone deacetylase 8 = molecular target: T1, Histone deacetylase 8 (Homo sapiens, UniProt Q9BY41); assay: Inhibition of recombinant C-terminal His-tagged and N-terminal Streptavidin2-tagged human HDAC8 (1 to 377 residues) expressed in baculovirus infected insect cells using RHK-K(Ac)-AMC as substrate after 60 mins by fluorescence assay
# T1 sequence (Q9BY41 whole entry): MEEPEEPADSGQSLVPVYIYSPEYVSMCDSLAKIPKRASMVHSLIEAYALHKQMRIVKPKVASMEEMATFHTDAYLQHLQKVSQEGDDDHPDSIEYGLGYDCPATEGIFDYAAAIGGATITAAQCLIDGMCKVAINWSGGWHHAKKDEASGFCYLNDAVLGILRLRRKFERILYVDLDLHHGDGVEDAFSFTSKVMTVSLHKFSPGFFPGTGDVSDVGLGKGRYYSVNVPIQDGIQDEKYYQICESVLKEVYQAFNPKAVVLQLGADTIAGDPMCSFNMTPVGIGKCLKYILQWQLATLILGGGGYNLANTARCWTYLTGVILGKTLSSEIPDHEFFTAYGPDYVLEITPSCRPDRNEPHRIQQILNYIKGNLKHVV
# Chain of Histone deacetylase 4 (P56524 whole entry, the tested form may be a part): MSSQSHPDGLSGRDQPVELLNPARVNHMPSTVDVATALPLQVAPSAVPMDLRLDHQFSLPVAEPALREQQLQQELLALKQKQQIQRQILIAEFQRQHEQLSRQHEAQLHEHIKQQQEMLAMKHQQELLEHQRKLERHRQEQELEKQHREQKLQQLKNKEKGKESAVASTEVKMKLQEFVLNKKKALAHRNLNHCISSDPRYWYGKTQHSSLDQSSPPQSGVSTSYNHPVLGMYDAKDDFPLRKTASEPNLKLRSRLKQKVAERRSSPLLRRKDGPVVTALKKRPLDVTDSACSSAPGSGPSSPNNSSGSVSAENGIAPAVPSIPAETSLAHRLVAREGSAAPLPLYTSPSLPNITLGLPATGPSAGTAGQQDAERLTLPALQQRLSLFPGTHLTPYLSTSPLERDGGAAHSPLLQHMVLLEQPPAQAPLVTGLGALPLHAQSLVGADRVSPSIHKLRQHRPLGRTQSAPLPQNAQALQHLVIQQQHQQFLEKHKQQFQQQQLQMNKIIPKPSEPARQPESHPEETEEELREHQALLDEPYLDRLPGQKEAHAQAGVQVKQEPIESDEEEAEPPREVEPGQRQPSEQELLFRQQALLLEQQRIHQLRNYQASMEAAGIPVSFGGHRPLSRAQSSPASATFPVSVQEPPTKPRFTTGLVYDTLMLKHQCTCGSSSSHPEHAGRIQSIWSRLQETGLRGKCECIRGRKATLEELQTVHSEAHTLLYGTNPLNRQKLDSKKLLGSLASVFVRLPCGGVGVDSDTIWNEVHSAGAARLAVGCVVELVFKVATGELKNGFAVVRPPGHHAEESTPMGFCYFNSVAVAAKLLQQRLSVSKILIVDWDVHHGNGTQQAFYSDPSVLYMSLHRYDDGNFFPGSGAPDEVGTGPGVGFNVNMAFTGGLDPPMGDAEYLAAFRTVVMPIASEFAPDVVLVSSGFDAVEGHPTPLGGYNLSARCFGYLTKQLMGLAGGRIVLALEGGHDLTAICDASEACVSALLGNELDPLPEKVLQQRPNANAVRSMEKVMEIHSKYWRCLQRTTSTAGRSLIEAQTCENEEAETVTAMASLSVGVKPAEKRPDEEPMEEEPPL
# Chain of Histone deacetylase 2 (Q92769 whole entry, the tested form may be a part): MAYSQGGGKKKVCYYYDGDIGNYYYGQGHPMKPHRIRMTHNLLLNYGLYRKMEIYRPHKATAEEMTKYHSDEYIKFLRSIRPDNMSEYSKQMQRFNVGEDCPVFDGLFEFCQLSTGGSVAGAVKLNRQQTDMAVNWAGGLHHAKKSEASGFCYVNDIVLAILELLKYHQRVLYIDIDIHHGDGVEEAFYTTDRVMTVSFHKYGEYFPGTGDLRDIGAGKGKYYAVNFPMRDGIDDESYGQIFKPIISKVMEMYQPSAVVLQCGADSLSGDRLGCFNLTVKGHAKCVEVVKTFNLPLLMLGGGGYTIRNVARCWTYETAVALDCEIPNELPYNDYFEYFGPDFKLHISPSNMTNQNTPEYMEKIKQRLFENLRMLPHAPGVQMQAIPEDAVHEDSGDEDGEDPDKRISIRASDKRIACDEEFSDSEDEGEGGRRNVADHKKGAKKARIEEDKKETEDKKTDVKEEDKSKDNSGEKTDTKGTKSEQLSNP
# Chain of Histone deacetylase 3/Nuclear receptor corepressor 2 (HDAC3/NCoR2) (O15379 whole entry): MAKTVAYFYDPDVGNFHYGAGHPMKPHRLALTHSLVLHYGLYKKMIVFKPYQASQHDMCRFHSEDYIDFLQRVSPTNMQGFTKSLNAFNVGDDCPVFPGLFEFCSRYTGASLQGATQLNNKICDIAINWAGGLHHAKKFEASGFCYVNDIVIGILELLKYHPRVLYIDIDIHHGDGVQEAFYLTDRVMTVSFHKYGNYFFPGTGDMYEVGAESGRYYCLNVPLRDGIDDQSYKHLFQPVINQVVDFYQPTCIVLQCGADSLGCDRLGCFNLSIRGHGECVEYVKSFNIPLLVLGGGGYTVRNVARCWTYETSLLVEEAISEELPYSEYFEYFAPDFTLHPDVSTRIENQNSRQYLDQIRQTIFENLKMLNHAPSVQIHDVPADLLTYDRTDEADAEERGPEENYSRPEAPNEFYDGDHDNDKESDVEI
# Chain of Histone deacetylase 3/Nuclear receptor corepressor 2 (HDAC3/NCoR2) (Q9Y618 whole entry, further chain): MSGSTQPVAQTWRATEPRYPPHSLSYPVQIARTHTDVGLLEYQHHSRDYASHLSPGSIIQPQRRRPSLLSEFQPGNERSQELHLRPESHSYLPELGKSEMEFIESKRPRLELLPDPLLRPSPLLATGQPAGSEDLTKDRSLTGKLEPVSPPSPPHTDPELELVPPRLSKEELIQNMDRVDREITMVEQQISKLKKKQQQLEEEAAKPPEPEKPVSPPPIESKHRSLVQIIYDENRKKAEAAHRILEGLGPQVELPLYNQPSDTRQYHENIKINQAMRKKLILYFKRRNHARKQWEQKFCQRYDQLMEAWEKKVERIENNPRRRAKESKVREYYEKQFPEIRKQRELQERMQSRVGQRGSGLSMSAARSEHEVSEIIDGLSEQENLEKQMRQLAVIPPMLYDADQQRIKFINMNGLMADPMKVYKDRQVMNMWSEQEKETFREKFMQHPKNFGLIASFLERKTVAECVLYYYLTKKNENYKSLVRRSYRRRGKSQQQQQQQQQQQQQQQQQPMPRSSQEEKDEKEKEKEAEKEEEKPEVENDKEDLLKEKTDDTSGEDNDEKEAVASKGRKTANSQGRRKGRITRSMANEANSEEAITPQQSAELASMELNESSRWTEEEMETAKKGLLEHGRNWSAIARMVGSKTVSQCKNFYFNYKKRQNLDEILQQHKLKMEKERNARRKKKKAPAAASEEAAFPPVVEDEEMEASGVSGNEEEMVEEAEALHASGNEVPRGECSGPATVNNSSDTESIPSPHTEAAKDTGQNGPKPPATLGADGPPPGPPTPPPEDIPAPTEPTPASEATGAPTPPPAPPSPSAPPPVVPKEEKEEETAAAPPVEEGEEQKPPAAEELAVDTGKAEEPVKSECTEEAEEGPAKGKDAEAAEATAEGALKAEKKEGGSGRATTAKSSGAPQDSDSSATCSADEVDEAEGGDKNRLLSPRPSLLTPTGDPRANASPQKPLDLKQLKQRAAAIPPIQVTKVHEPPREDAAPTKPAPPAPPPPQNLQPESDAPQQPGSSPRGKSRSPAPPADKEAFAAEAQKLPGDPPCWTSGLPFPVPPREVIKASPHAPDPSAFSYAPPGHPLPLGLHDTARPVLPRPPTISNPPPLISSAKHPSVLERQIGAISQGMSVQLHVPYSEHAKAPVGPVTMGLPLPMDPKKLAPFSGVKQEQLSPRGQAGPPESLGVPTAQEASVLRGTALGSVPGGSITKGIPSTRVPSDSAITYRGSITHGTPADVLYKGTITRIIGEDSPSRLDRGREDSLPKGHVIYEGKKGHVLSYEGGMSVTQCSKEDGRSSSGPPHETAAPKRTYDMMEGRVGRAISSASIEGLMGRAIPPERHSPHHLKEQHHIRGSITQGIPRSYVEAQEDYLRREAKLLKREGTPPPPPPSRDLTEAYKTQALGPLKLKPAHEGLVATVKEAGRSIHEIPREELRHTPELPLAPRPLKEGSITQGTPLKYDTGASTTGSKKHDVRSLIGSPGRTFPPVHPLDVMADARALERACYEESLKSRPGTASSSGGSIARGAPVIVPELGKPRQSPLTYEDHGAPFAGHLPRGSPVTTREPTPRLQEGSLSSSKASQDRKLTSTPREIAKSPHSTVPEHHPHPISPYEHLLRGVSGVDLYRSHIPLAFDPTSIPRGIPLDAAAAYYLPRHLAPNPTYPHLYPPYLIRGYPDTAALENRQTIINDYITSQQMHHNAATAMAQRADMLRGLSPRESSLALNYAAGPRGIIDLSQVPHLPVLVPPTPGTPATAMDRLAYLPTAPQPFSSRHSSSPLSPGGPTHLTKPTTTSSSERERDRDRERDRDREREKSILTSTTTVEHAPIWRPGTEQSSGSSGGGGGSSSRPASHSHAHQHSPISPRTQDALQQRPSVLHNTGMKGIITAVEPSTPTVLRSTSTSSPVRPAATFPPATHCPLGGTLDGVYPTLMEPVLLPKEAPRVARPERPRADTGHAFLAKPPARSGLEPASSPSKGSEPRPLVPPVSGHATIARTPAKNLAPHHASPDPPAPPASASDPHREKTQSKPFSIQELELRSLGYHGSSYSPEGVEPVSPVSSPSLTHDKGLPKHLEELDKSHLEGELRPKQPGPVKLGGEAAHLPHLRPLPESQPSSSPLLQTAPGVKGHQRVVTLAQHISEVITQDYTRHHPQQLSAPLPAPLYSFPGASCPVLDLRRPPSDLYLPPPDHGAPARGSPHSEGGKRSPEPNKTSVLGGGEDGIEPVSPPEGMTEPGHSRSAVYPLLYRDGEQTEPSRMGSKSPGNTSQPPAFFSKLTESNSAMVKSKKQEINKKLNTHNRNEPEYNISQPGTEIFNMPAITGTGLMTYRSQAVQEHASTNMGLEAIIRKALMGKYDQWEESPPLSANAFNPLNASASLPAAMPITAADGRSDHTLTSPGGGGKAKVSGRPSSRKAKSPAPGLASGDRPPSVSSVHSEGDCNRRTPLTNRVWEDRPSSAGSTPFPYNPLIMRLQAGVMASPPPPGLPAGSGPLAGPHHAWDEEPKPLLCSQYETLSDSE
structure (smiles),measurement,setting,value
O=C(/C=C/c1ccc(CNCCCN2c3ccccc3CCc3ccc(Cl)cc32)cc1)NO,Activity,Mus musculus [1],Active
same,IC50,[2],2.86 µM
same,Cmax,[3],8.9 ng/mL
same,IC50,Histone deacetylase 5,6.27 µM
same,remaining at 0.5 h,[4],81.5%
same,IC50,Histone deacetylase 2,6.62 µM
same,AUC(0-inf),[5],1850 ng·h/mL
same,IC50,Histone deacetylase 4,Not Active
same,Activity,Mus musculus [6],Active
same,half-life,[7],10.9 h
same,Tmax,[8],3.5 h
same,Activity,Mus musculus [9],Active
same,Ratio,Mus musculus [10],0.896
same,Ratio,Mus musculus [11],0.923
same,remaining at 0.5 h,[12],37.4%
same,Activity,Mus musculus [13],Active
same,Activity,Mus musculus [14],89 - 92%
same,solubility,[15],6.58 µg/mL
same,IC50,Histone deacetylase 8,0.533 µM
